This is an account of results in patent publication US20260234165A1, “MACROCYCLIC COMPOUNDS, PREPARATION METHOD THEREFOR, AND USE THEREOF” (GENFLEET THERAPEUTICS (SHANGHAI) INC., priority 2004, published 2026).

Data set [1] concerns p-ERK in NCI-H441 cells (KRAS G12V mutation). Nature of the data set: Cell p-ERK assay (HTRF) in NCI-H441 cells. The settings on record: NCI-H441 cells, 3 h compound incubation, HTRF p-ERK T202/Y204, read-out: H441 p-ERK IC50. It is filed as cell-based, human. The procedure, abridged:
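Phospho-ERK inhibition measured by HTRF after a 3 h compound exposure (0.1% DMSO) in overnight-seeded cells; IC50 derived from dose-response fitting.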

The nature of data set [2]: Pharmacokinetic study in rats. The note with it: male SD rats; for clearance / CL: IV, dose 1 mg/kg; for AUC / Cmax: PO (intragastric), dose 10 mg/kg. It is filed as in vivo, Sprague-Dawley (SD) rats. From the text:
A total of 6 healthy adult male Sprague-Dawley (SD) rats were provided by Zhejiang Vital River Laboratory Animal Technology Co., Ltd. For each test compound, 6 healthy adult male SD rats were selected and randomly divided into 2 groups: an intravenous administration (IV) group and an intragastric administration (PO) group. The LC-MS/MS method was used to determine the drug concentrations in the plasma of rats at different time points after intravenous and intragastric administration of the test compounds. This experiment was intended to investigate the pharmacokinetic performance of the test compounds in rats and to evaluate the pharmacokinetic characteristics. Each drug used in the experiment was prepared from the test compound powder: An appropriate amount of test compound powder was weighed out, and appropriate amounts of DMSO, a 10% aqueous Solutol HS 15 solution, and a 6% aqueous HP-β-CD solution were sequentially added according to a volume ratio of 5:10:85. The mixture was vortexed and sonicated until clarification. The final concentration of the drug in the IV group was 0.5 mg/mL, and the final concentration of the drug in the PO group was 1 mg/mL; the concentrations could be adjusted according to actual needs. For the drug in the PO group of Z504, an appropriate amount of test compound powder was weighed out, and an appropriate amount of 0.5% MC+0.2% Tween 80 aqueous solution was added. The mixture was well mixed by vortexing to give a 1 mg/mL homogeneous suspension: the concentration could be adjusted according to actual needs.
All experimental rats were fasted overnight, and food intake was resumed 4 h after administration. For the rats in the IV group, the administration volume was set at 2 mL/kg, with Z554 and Z915 administered at a dose of 0.5 mg/kg and the other compounds at a dose of 1 mg/kg. For the rats in the PO group, the administration volume was 10 mL/kg and the dose was 10 mg/kg. The administration amount was adjusted according to the body weight of the rats on the day of administration. In the experiment, blood samples were collected from the rats in the IV group at multiple time points (0.0833 h, 0.25 h, 0.5 h, 1 h, 2 h, 4 h, 7 h, and 24 h) after administration, while blood samples were collected from the PO group at 0.25 h, 0.5 h, 1 h, 2 h, 4 h, 7 h, and 24 h after administration, with approximately 100 μL collected each time via the orbital blood collection method.
The blood samples were placed in centrifuge tubes containing EDTA-K2 and centrifuged at 8000 rpm for 4 min within 30 min to separate the supernatant plasma. The resulting plasma samples were stored at −20° C. for later use. For sample analysis, 20 μL of each of plasma samples and calibration standards was added to a 96-well plate, and 160 μL of acetonitrile containing 100 ng/mL tolbutamide was added. The samples were vortexed for 5 min for uniform mixing, and then centrifuged at 4000 rpm for 15 min. After the centrifugation was completed, 50 μL of supernatant was added to a 96-well plate containing 150 μL of deionized water. The plate was then sealed and shaken for uniform mixing. Sample analysis was performed by LC-MS/MS.
The sampling volume could be adjusted according to actual needs, but the final concentration should be kept unchanged.

Where [3] appears, read: Sprague-Dawley, rat, plasma, read-out: AUC.
The mark [4] stands for this setting: Sprague-Dawley, rat, plasma, read-out: Cmax.

Read-outs that look alike come from different tables or passages of the source.

Turning to `CCn1c(-c2cc(C#CCN3CCS(=O)(=O)CC3)cnc2[C@H](C)OC)c2c3cc(ccc31)-c1csc(n1)C[C@H](Nc1nnc3cc(C)ccn13)C(=O)N1CCC[C@H](N1)C(=O)OCC(C)(C)C2` (atropisomer, axis not shown; (Ra)) [Compound Z911, (6^3S,4S,Z)—(Ra)-1^2-(5-(3-(1,1-dioxidothiomorpholino)prop-1-yn-1-yl)-2-((S)-1-methoxyethyl)pyridin-3-yl)-1^1-ethyl-10,10-dimethyl-4-((7-methyl-[1,2,4]triazolo[4,3-a]pyridin-3-yl)amino)-6^1,6^2,6^3,6^4,6^5,6^6-hexahydro-1^1H-8-oxa-2(4,2)-thiazola-1(5,3)-indola-6(1.3)-pyridazinacycloundecaphane-5,7-dione], the IC50 in data set [1] (Homo sapiens, NCI-H441, 3 h) was 0.74 nM. Moreover, the clearance in data set [2] (Sprague-Dawley, rat, plasma) is 0.41 mL/min/kg. Also, the AUC in data set [2] (setting [3]) is 2540 ng·h/mL. Also, in data set [2] (setting [4]), the Cmax amounted to 427 ng/mL.

Consider `CCn1c(-c2cc(C#CCN3CCC(C(F)(F)F)CC3)cnc2[C@H](C)OC)c2c3cc(ccc31)-c1csc(n1)C[C@H](NC(=O)[C@H]1[C@H](C)[C@@H]1C)C(=O)N1CCC[C@H](N1)C(=O)OCC(C)(C)C2` (atropisomer, axis not shown; (Ra)) [Compound Z778], for which, in data set [1] (Homo sapiens, NCI-H441, 3 h), the IC50 was 0.37 nM. In data set [2] (Sprague-Dawley, rat, plasma), this compound had a clearance of 5.31 mL/min/kg. For the same compound, the AUC in data set [2] (setting [3]) came out at 4020 ng·h/mL. Moreover, the Cmax in data set [2] (setting [4]) came out at 702 ng/mL.

Regarding `CCn1c(-c2cc(C#CCN3C4CCC3COC4)cnc2[C@H](C)OC)c2c3cc(ccc31)-c1csc(n1)C[C@H](NC(=O)[C@H]1[C@H](C)[C@@H]1C)C(=O)N1CCC[C@H](N1)C(=O)OCC(C)(C)C2` (atropisomer, axis not shown; (Ra)) [Compound Z711, (1r,2R,3S)—N-((6^3S,4S,Z)—(Ra)-1^2-(5-(3-(3-oxa-8-azabicyclo[3.2.1]octan-8-yl)prop-1-yn-1-yl)-2-((S)-1-methoxyethyl)pyridin-3-yl)-1^1-ethyl-10,10-dimethyl-5,7-dioxo-6^1,6^2,6^3,6^4,6^5,6^6-hexahydro-1^1H-8-oxa-2(4,2)-thiazola-1(5,3)-indola-6(1,3)-pyridazinacycloundecaphane-4-yl)-2,3-dimethylcyclopropane-1-carboxamide], the IC50 in data set [1] worked out at 0.23 nM. In data set [2], the “CL” value came out at 3.82 mL/min/kg, the “AUC” value is 8876 ng·h/mL and the peak concentration (Cmax) is recorded as 1867 ng/mL.

Take `CCn1c(-c2cc(C#C[C@@H]3COCCN3C)cnc2[C@H](C)OC)c2c3cc(ccc31)-c1csc(n1)C[C@H](NC(=O)[C@H]1[C@H](C)[C@@H]1C)C(=O)N1CCC[C@H](N1)C(=O)OCC(C)(C)C2` (atropisomer, axis not shown; (Ra)) [Compound Z672, (1r,2R,3S)—N-((6^3S,4S,Z)-1^1-ethyl-(Ra)-1^2-(2-((S)-1-methoxyethyl)-5-(((R)-4-methylmorpholin-3-yl)ethynyl)pyridin-3-yl)-10,10-dimethyl-5,7-dioxo-6^1,6^2,6^3,6^4,6^5,6^6hexahydro-1^1H-8-oxa-2(4,2)-thiazola-1(5,3)-indola-6(1,3)-pyridazinacycloundecaphane-4-yl)-2,3-dimethylcyclopropane-1-carboxamide]: the IC50 in data set [1] (Homo sapiens, NCI-H441, 3 h) turned out to be 0.39 nM. This compound also returned a clearance in data set [2] (Sprague-Dawley, rat, plasma) of 11.8 mL/min/kg. For the same compound, the AUC in data set [2] (setting [3]) turned out to be 2940 ng·h/mL. Moreover, the Cmax in data set [2] (setting [4]) turned out to be 738 ng/mL.

`CCn1c(-c2cc(C#CCN3CCOC[C@H]3C)cnc2[C@H](C)OC)c2c3cc(ccc31)-c1csc(n1)C[C@H](NC(=O)[C@H]1[C@H](C)[C@@H]1C)C(=O)N1CCCC(N1)C(=O)OCC(C)(C)C2` (atropisomer, axis not shown; (Ra)) [Compound Z813]: the 50% inhibitory concentration (IC50) in data set [1] worked out at 0.08 nM. Further, in data set [2], the “CL” value is 14.9 mL/min/kg, the “AUC” value is 1643 ng·h/mL and the “Cmax” value was found to be 401 ng/mL.

On to `CCn1c(-c2cc(C#CCN3CCS(=O)(=O)CC3)cnc2[C@H](C)OC)c2c3cc(ccc31)-c1csc(n1)C[C@H](NC(=O)[C@H]1[C@H](C)[C@@H]1C)C(=O)N1CCC[C@H](N1)C(=O)OCC(C)(C)C2` (atropisomer, axis not shown; (Ra)) [Compound Z838, (1r,2R,3S)—N-((6^3S,4S,Z)—(Ra)-1^2-(5-(3-(1,1-dioxidothiomorpholino)prop-1-yn-1-yl)-2-((S)-1-methoxyethyl)pyridin-3-yl)-1^1-ethyl-10,10-dimethyl-5,7-dioxo-6^1,6^2,6^3,6^4,6^5,6^6-hexahydro-1^1H-8-oxa-2(4,2)-thiazola-1(5,3)-indola-6(1,3)-pyridazinacycloundecaphane-4-yl)-2,3-dimethylcyclopropane-1-carboxamide], for which the IC50 in data set [1] (Homo sapiens, NCI-H441, 3 h) was found to be 0.15 nM. Further, the clearance in data set [2] (Sprague-Dawley, rat, plasma) came out at 2.51 mL/min/kg. For the same compound, the AUC in data set [2] (setting [3]) worked out at 3900 ng·h/mL. In addition, in data set [2] (setting [4]), the Cmax amounted to 1400 ng/mL.

For orientation: IC50 means the concentration at which inhibition is half-maximal. One may read the clearance as a measure of how efficiently the substance is removed, as volume per time. What is called AUC is concentration integrated over time. One may read the Cmax as the maximum level reached in the sampled fluid or tissue.
